The text below walks through data of US12616713B2, “Methods for enhancing vascular density” (priority 2016, dated 2026).

Molecules are shown by their SMILES.

In test [1] the test system is MLECs isolated from WT and ESKO mice. Nature of the test: Transwell migration assay, MLECs. It counts as cell-based, mouse. The note with it: WT versus ESKO MLECs, C2C12 CM, NMN 0.5 mM.
Test [2] deals with HUVECs. Kind of test: Cell apoptosis assay, HUVECs exposed to H2O2. It counts as cell-based, human. As to the method:
HUVECs were treated with PBS (vehicle), NaHS (100 μM), NMN (500 μM) or NMN+NaHS for 6 h, followed by exposure to H2O2 (600 μM) for another 4 h. After treatments, the number of apoptotic cells was determined using Annexin V-FITC apoptosis detection kit (eBioscience) as per manufacturer's instructions. Briefly, cells were collected by trypsinization and centrifugation at 1500 rpm for 5 minutes, followed by washing cell pellet twice with cold PBS and resuspending cell pellet in 1× Annexin-binding buffer. Then, 5 μL of Annexin-V FITC was added to 195 μL of cell suspension and incubated at room temperature for 15 min in the dark. After the incubation, cells were centrifuged, resuspended in 195 μL of 1× Annexin-binding buffer and then 5 μL of propidium iodide working solution was added. After mixing gently, the fluorescence intensity was detected with a flow cytometry (FACSCanto II Analyzer, BD Biosciences) at emission at 530 nm and 575 nm and excitation at 488 nm. […]

Test [3] has as its system C57BL/6J mice. Kind of test: Metabolic chambers (CLAMS) oxygen consumption. It counts as in vivo, mouse. As to the method:
Metabolic chambers (CLAMS™, Columbus Instruments, Columbus, OH) were used to perform whole-body measurements of metabolic function. Following acclimatization to the metabolic chambers, individually housed mice were monitored continuously over 48 h to determine oxygen consumption, carbon dioxide production, respiratory exchange ratio, energy expenditure, food intake, water intake and activity. Body composition (fat mass, lean mass, and total body water) was measured by EchoMRI (Echo MRI™ 900).

Test [4] concerns SIRT1-iKO and WT mice. Nature of the test: Hindlimb ischemia model. The format is in vivo, mouse. The settings on record: 8-month old mice, femoral ligation, NMN 20 days; SIRT1-dependent. As to the method: The effect of NMN in ischemia-induced vessel formation was assessed in a murine model of hindlimb ischemia using SIRT1-iKO and WT mice according to the published protocol (Limbourg et al., 2009, Nat Protoc 4, 1737-1746). Treatment of animals with NMN (500 mg/kg/day) via drinking water started one week prior to femoral ligation and was continued until the end of the experiment. The blood flow in the ischemic limb was measured using contrast-enhanced ultrasound imaging, 20 days after the surgery.
Mice were anesthetized with isoflurane (1.5-2%, 500 ml 02/min), hindlimbs were shaved using depilatory cream and a 27-gauge catheter was placed into each mouse's tail and kept in place with surgical tape. […] A cine loop was recorded at a frame rate of 20 frames/s for a total of 1,000 frames. […] The difference in maximum and minimum video intensity was determined as the peak enhancement and was the variable used to determine muscle perfusion.
Freshly isolated whole quadriceps and gastrocnemius muscle samples were mounted in OCT compound (Tissue-Tek), placed in an isopentane bath and slowly cooled in liquid nitrogen. […] Images were acquired using a confocal fluorescence microscope (Nikon A1). Quantification of capillaries and capillary density were performed using ImageJ software. […]

The test system of test [5] is C57BL/6J mice. Nature of the test: Treadmill exercise training with or without NMN, muscle capillaries. It counts as in vivo, mouse. How it is done: Mice were acclimatized to the treadmill system for 3 days prior to the start of exercise training by running at 10 m/min for 20 min. The animals that were successfully acclimatized were then subjected to running at 15-20 m/min at 5° inclination for 30 minutes once daily for one month. Freshly isolated whole quadriceps and gastrocnemius muscle samples were mounted in OCT compound (Tissue-Tek), placed in an isopentane bath and slowly cooled in liquid nitrogen. Transverse sections at 20 μm-thickness were sectioned on a cryostat (Leica). The sections were fixed in pre-cooled acetone (-20° C.) for 10 min and washed with PBS. […] Slides were washed with PBST and then incubated with anti-rat Alexa Fluor 488-conjugated (Life Technologies) and anti-rabbit Alexa Fluor 594-conjugated (Life Technologies) antibodies diluted to 1:500 in blocking buffer for 2 h at room temperature. Slides were washed again with PBST and mounted with Fluoroshield with DAPI mounting medium (Sigma). Images were acquired using a confocal fluorescence microscope (Nikon A1). Quantification of capillaries and capillary density were performed using ImageJ software. TUNEL staining was performed in muscle sections using in situ BrdU-Red DNA fragmentation (TUNEL) assay kit (Abcam) as per manufacturer's protocol.

On to `NC(=O)c1ccc[n+]([C@@H]2O[C@H](COP(=O)([O-])O)[C@@H](O)[C@H]2O)c1` [NMN, nicotinamide mononucleotide], for which, in test [1], the “ability of NMN to stimulate cell migration, dependence on SIRT1” value is “SIRT1-dependent”. Also, in test [2] (NMN 500 μM 6 h, then H2O2 600 μM 4 h), the “percentage of cells undergoing early apoptosis” value is listed as “reduced the percentage of cells undergoing early apoptosis”. For the same compound, in test [2] (NaHS 0.1 mM and/or NMN 0.5 mM 6 hrs, then H2O2 600 μM 4 hrs), the “reduction of apoptosis in response to H2O2” value was found to be 13%. Further, the “oxygen consumption higher than non-treated control mice” value in test [3] (dark cycle) is 23%. For the same compound, in test [3] (light cycle), the “oxygen consumption higher than non-treated control mice” value is given as 30%. In test [4], the “capillary density of ischemic gastrocnemius” value is listed as “restored” and the “relative blood volume (peak enhancement) of ischemic limb” value is “restored”. Further, the “more capillaries in gastrocnemii than sedentary mice” value in test [5] (exercised and NMN-treated mice) is recorded as 70%. The “increase in vascular density and exercise capacity in conjunction with exercise versus without exercise” value in test [5] (mice (summary statement)) is listed as “greater”. The “capillary density or exercise capacity” value in test [5] (young mice kept sedentary, NMN 400 mg/kg/day) is recorded as “did not increase”. In addition, in test [5] (young mice, one month endurance training plus NMN 400 mg/kg/day, versus sedentary), the “increase in capillary density” value amounted to 3.2 fold.
